From patent US20220098251A1, “PEPTIDE TAGS FOR LIGAND INDUCED DEGRADATION OF FUSION PROTEINS” (DANA-FARBER CANCER INSTITUTE, INC., priority 2018, published 2022)

How the values were obtained:
[1] = target: T1, eGFP-IKZF1Δ fusion (Homo sapiens, UniProt Q13422); experiment: Cellular degradation assay of eGFP-IKZF1Δ reporter by flow cytometry; type: cell-based; details: Flip-In 293 cells, 5 h, eGFP/mCherry
T1 construct: eGFP (followed by P2A); expressed in transfected cells
Procedure: Following 2-3 passage cycle FACS (FACSAria™ II, BD) was used to enrich for cells expressing eGFP and mCherry.
Signal from at least 3,000 events per well was acquired, and the eGFP and mCherry florescence monitored. Data were analyzed using FlowJo™ (FlowJo™, LCC). […] The eGFP protein abundance relative to mCherry was then quantified as a ten-fold amplified ratio for each individual cell using the formula: 10×eGFP/mCherry. The median of the ratio was then calculated per set, normalized to the median of the DMSO ratio.
Quantitative assessment of cellular degradation of a IKZF1-EGFP reporter using flow cytometry analysis. Cells stably expressing IKZF1Δ-EGFP and mCherry were treated with increasing concentrations of the indicated molecules and the EGFP and mCherry signals followed using flow cytometry analysis. Data in this figure are presented as means±s.d. from four cell culture replicates (n=4).

[2] = test system: Jurkat cells expressing individual ZFs in the Cilantro 2 protein degradation reporter; experiment: Drug dependent degradation of ZFs in Cilantro 2 protein degradation reporter lentivector; type: cell-based; details: Cilantro 2, Jurkat cells
Excerpt: Next-generation sequencing of sorted cell populations encoding the ZF library was based on GFP expression. […] The experimental procedure was as described in Example 16.

[3] = test system: DDB1ΔB-CRBN; experiment: TR-FRET of SALL4 degron binding to CRBN; set-up: species or system human; details: for IMiD induced CRBN binding: purified proteins, SALL4 point mutants; for IMiD-dependent dimerization / binding affinity to CRBN: SALL4 degron tags, biochemical assays
Procedure: Compounds in binding assays were dispensed into a 384-well microplate (Corning, 4514) using the D300e Digital Dispenser (HP) normalized to 1% DMSO and containing 100 nM biotinylated Strep-Avi-SALL4 (WT or mutant, see, FIG. 3A-FIG. 3K), 1 μM His6-DDB1ΔB-His6-CRBNBODIPY-Spycatcher and 4 nM terbium-coupled streptavidin (Invitrogen) in a buffer containing 50 mM Tris pH 7.5, 100 mM NaCl, 1 mM TCEP, 0.1% Pluronic F-68 solution (Sigma). Before TR-FRET measurements were conducted, the reactions were incubated for 15 minutes at room temperature (RT). After excitation of terbium fluorescence at 337 nm, emission at 490 nm (terbium) and 520 nm (boron-dipyrromethene (BODIPY)) were recorded with a 70 μs delay over 600 μs to reduce background fluorescence and the reaction was followed over 30×200 second cycles of each data point using a PHERAstar® FS microplate reader (BMG Labtech). The TR-FRET signal of each data point was extracted by calculating the 520/490 nm ratios. Data from three independent measurements (n=3), each calculated as an average of 5 technical replicates per well per experiment, was plotted and the half maximal effective concentrations EC50 values calculated using variable slope equation in GraphPad Prism 7. […] The resulting data were fitted as described previously. (Petzold et al., Nature 532:127-130 (2016)).

[4] = test system: Kelly cells transiently transfected with Flag-hsSALL4; experiment: Western blot of Flag-hsSALL4 levels in Kelly cells treated with thalidomide; type: cell-based; details: 24 hours
Procedure: Kelly cells were transiently transfected with hsSALL4^G416A or Flag-hsSALL4^G416N were treated with increasing concentrations of thalidomide or DMSO as a control. Following 24 hours of incubation, SALL4 (α-Flag) and GAPDH protein levels were assessed by western blot analysis (FIG. 4A). (See, Example 7 for western blot method.)
Kelly cells transiently transfected with Flag-hsSALL4WT, Flag-hsSALL4G600A, or hsSALL4G600N were treated with increasing concentrations of thalidomide or DMSO as a control. Following 24 h of incubation, SALL4 (α-Flag) and GAPDH protein levels were assessed by western blot analysis (one representative experiment is shown out of three replicates).
Cells were treated with compounds as indicated and incubated for 24 hours, or as indicated. Samples were run on 4-20% or Any kD™ SDS-PAGE Gels (Bio-rad), and transferred to polyvinylidene fluoride (PVDF) membranes using the iBlot® 2.0 dry blotting system (Thermo Fisher Scientific). Membranes were blocked with LI-COR® blocking solution (LI-COR®), and incubated with primary antibodies overnight, followed by three washes in LI-COR® blocking solution and incubation with secondary antibodies for one hour in the dark. After three final washes, the membranes were imaged on a LI-COR® fluorescent imaging station.

[5] = target: T2, DDB1ΔB-CRBN (Homo sapiens, UniProt Q96SW2); experiment: IKZF1Δ TR-FRET dimerization assay; type: binding; details: titration of IMiDs
T2 construct: 3C protease site (N); made in house; host or cells: Trichoplusia ni High Five insect cells (baculovirus)
Procedure: Compounds in dimerization assays were dispensed in a 384-well microplate (Corning, 4514) using D300e Digital Dispenser (HP) normalized to 2% DMSO into 80 nM biotinylated StrepII-avi-IKZF1Δ (See, Figure legends), 100 nM His6-DDB1ΔB-His6-CRBNBODIPY-Spycatcher and 2 nM terbium-coupled streptavidin (Invitrogen™) in a buffer containing 50 mM Tris pH 7.5, 200 mM NaCl, 0.1% Pluronic F-68 solution (Sigma) and 2% DMSO (4% DMSO final). Before TR-FRET measurements were conducted, the reactions were incubated for 15 min at RT. After excitation of terbium fluorescence at 337 nm, emission at 490 nm (terbium) and 520 nm (BODIPY) were recorded with a […] to reduce background fluorescence and the reaction was followed over 30 200 second cycles of each data point using a PHERAstar® FS microplate reader (BMG Labtech). The TR-FRET signal of each data point was extracted by calculating the 520/490 nm ratio. The 520/490 nm ratios in IKZF1Δ TR-FRET assays were plotted to calculate or IC50 (for compound titrations) using GraphPad Prism 7 variable slope equation. The standard deviation in IKZF1Δ TR-FRET compound titrations was calculated from three independent replicates (n=3), or as an average of 5 technical replicates of single experiment for unlabeled protein titrations.
Titration of the indicated molecules to DDB1ΔB-CRBNSPYCATCHER-BODIPY, Terbium-streptavidin and IKZF1Δbiotin. […]

T1 sequence (Q96SW2 whole entry partner, one chain of several, the tested form may be a part): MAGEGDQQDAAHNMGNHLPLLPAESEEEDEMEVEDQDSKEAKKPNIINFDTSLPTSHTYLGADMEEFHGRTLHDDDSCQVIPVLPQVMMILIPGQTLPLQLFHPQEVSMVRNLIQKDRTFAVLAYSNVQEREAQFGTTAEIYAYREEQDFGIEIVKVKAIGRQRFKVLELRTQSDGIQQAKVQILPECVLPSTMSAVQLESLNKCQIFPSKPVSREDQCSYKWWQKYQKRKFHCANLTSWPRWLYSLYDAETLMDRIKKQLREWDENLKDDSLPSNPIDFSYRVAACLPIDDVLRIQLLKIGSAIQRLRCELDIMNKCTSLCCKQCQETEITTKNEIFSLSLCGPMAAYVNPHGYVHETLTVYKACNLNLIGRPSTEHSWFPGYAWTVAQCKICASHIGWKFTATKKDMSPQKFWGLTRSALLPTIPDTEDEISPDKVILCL
T1 sequence (Q16531 whole entry partner, one chain of several, the tested form may be a part): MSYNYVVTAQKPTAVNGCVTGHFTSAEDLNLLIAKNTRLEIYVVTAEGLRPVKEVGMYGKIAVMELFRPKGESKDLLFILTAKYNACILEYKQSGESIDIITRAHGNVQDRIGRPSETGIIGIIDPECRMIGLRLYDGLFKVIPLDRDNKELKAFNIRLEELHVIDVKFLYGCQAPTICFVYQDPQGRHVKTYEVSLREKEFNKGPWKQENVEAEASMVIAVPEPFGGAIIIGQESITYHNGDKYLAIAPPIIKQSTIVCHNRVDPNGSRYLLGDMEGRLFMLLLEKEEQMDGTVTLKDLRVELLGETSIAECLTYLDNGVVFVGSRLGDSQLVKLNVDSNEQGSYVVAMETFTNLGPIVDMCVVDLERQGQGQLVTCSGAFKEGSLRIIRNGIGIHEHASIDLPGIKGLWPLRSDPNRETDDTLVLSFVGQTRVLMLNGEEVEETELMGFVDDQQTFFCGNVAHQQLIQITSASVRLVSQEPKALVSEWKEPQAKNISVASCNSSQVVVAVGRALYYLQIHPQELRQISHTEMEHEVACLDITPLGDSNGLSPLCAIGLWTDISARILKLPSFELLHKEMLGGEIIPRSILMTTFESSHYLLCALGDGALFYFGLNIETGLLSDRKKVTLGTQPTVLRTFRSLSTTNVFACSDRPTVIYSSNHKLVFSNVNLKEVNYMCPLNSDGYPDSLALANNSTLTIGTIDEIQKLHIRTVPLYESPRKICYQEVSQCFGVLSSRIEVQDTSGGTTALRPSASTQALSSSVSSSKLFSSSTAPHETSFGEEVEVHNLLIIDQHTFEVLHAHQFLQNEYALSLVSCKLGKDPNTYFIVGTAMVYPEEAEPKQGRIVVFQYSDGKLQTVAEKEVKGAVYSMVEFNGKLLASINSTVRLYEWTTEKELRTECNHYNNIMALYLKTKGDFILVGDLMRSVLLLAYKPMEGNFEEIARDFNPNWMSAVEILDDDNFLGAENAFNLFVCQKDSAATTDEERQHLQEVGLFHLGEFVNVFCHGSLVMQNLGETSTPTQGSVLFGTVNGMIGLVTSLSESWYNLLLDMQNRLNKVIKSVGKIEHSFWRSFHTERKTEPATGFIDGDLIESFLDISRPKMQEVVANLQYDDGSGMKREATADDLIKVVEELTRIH
T2 sequence (Q96SW2 whole entry, stated change not applied): as the sequence (Q96SW2 whole entry partner, one chain of several, the tested form may be a part) above

Nc1cccc2c1CN(C1CCC(=O)NC1=O)C2=O (stereo not drawn) [lenalidomide]
degradation of eGFP-IKZF1Δ fusion [1]: potent degradation

Nc1cccc2c1C(=O)N(C1CCC(=O)NC1=O)C2=O (stereo not drawn) [pomalidomide]
degradation of eGFP-IKZF1Δ fusion [1]: potent degradation

O=C1CCC(N2C(=O)c3ccccc3C2=O)C(=O)N1 (stereo not drawn) [thalidomide]
degradation of eGFP-IKZF1Δ fusion [1]: potent degradation

CC220-1: zinc finger degron FYCTQCGAAFDRWEELYNHLLNH (SEQ ID NO: 185)
degradation by iberdomide relative to control sequences [2]: more efficiently degraded by iberdomide (aka CC-220) than the indicated control sequences

CC220-2: zinc finger degron MQCEICGFTCRRAEELNTHLNKH (SEQ ID NO: 186)
degradation by iberdomide relative to control sequences [2]: more efficiently degraded by iberdomide (aka CC-220) than the indicated control sequences

CC220-3: zinc finger degron FYCKQCGANFSRWEELYNHLKAH (SEQ ID NO: 187)
degradation by iberdomide relative to control sequences [2]: more efficiently degraded by iberdomide (aka CC-220) than the indicated control sequences

G416A: SALL4 with G416A point mutation in ZnF2
IMiD induced CRBN binding [3]: abrogated IMiD induced CRBN binding
protein degradation in cells [4]: disable degradation in cells

Q595H: SALL4 ZnF4 with mutation of glutamine 595 residue
IMiD-dependent dimerization / binding affinity to CRBN [3]: reduced binding affinity
protein degradation in cells [4]: no effect at the ability of the protein product to be degraded

B1: G416N: SALL4 with G416N point mutation in ZnF2 (protein)
chain: ALYKHKCKYCSKVFGTDSSLQIHLRSHTGERPFVCSVCNHRFTTKGNLKVHFHRHPQVKAN
modifications: left off: small tags and cut ends
notes: SALL4 with G416N point mutation in ZnF2
IMiD induced CRBN binding [3]: abrogated IMiD induced CRBN binding
protein degradation in cells [4]: disable degradation in cells

B2: S388N: SALL4 ZnF1-2 with S388N mutation in ZnF1 (SEQ ID NO: 84) (protein)
chain: ALYKHKCKYCNKVFGTDSSLQIHLRSHTGERPFVCSVCGHRFTTKGNLKVHFHRHPQVKAN
IMiD induced CRBN binding [3]: maintained IMiD induced CRBN binding

B3: SALL4 ZnF1-2: degron tag SEQ ID NO: 27 (protein)
chain: ALYKHKCKYCSKVFGTDSSLQIHLRSHTGERPFVCSVCGHRFTTKGNLKVHFHRHPQVKAN
IMiD-dependent dimerization / binding affinity to CRBN [3]: sufficient to induce efficient dimerization

B4: IKZF1 (SEQ ID NO: 18): non-naturally occurring degron tag of SEQ ID NO: 18 (protein)
chain: RMLDASGEKMNGSHRDQGSSALSGVGGIRLPNGKLKCDICGIICIGPNVLMVHKRSHTGERPFQCNQCGASFTQKGNLLRHIKLHSGEKPFKCHLCNYACRRRDALTGHLRTHSVIKEETNHSEMAEDLCK
dimerization between CRBN-DDB1ΔB and IKZF1Δ [5]: Potent dimerization
